Entries after “also recorded” stand apart in the source; their conditions may differ.
Tests used:
Type in all cases: in vivo, rat
aldosterone infused rats = assay: Assay B aldosterone infusion model: myocardial fibrosis (interstitial collagen volume fraction, hydroxyproline); conditions: aldosterone/salt treatment, 4 weeks
Procedure: Assay B: In vivo Aldosterone Infusion Model Male Sprague Dawley rats (n=39; BW=250 g) […] Uni-nephrectomy performed during implantation of mini-pumps 2. Aldosterone (0.75 mg/hr, sc via aizet minipump) 2. […] 1. […] Sacrifice after 4 weeks. Hearts were stained with hematoxylin&eosin and the collagen specific dye picro-sirius red and were analyzed for determination of interstitial collagen volume fraction and morphologic abnormalities (i.e. necrosis, vascular injury). Hydroxyproline concentration was measured in the frozen hearts.

COX-2 = assay: Assay B aldosterone infusion model: COX-2 mRNA in heart by quantitative RT-PCR (Taqman)
Procedure: (§1) Assay B: In vivo Aldosterone Infusion Model Male Sprague Dawley rats (n=39; BW=250 g) […] Uni-nephrectomy performed during implantation of mini-pumps […] Aldosterone ([…], sc via aizet minipump) […] 1. […] Sacrifice after 4 weeks. Hearts were harvested and divided by half through a transverse section at the mid-ventricles: The upper half was stored into formalin. The bottom part was snap-frozen in liquid nitrogen for biochemical analysis. Determination of osteopontin and COX-2 was performed by quantitative RT-PCR (Taqman). Osteopontin was also identified in the heart by immunohistochemistry.

osteopontin [1] = assay: Assay B aldosterone infusion model: serum (circulating) osteopontin at 28 days; conditions: NaCl 1% drinking rats with aldosterone and eplerenone
Procedure: Assay B: In vivo Aldosterone Infusion Model Male Sprague Dawley rats (n=39; BW=250 g) […] Uni-nephrectomy performed during implantation of mini-pumps 2. Aldosterone ([…], sc via aizet minipump) 2. […] Sacrifice after 4 weeks.

osteopontin [2] = assay: Assay B aldosterone infusion model: osteopontin mRNA in heart by quantitative RT-PCR (Taqman)
Procedure: as §1

[3] = tested on: stroke-prone spontaneously hypertensive rats; assay: Stroke-prone spontaneously hypertensive rats: survival and cerebral injury (FIGS. 37-38); conditions: stroke-prone spontaneously hypertensive rats (FIGS. 37, 38)
[4] = tested on: angiotensin II infused rats; assay: Assay A angiotensin II infusion model: urinary Na+/K+ ratio (natriuresis index); conditions: saline-drinking rats, eplerenone 100 mpk
Source text: 24-hours food and fluid intake and urine output measured every day Urine samples collected every day for determination of urinary electrolytes. Electrolyte excretion. The ratio between daily urinary Na^+ excretion and urinary K^+ excretion (U Na^+/K^+ ratio) was used as an index for natriuresis. Urinary Na^+/K^+ ratio was similar in all groups before the start of the treatments, and increased similarly in all animals upon initiation of the high salt diet.

[5] = tested on: Atrial natriuretic factor (ANP); assay: Assay C: ANP mRNA in left ventricle (TaqMan)
Procedure: The procedure of Assay B was expanded upon in a further study. […] Myocardial tissue from animals in each treatment group was examined after 7, 14, or 30 days of treatment.
Potassium chloride supplementation was added to the saline solution in order to prevent the potential hypokalemia associated with aldosterone excess.
At the time of the surgery, an Alzet 2002 osmotic minipump (Alza Corp., Palo Alto, Calif.) containing either vehicle (9% ethanol/87% propylene glycol/4% dH2O) or 1.0 mg/mL d-aldosterone (Sigma Chemical, St. Louis, Mo.) was inserted subcutaneously at the nape of the neck. Aldosterone was administered at a dose of 0.75 g/hour. […] Animals were sacrificed from each group (n=8-13) after 7, 14, or 30 days of treatment. […]
The fluorogenic 5′-nuclease assay (TaqMan PCR) using Applied Biosystems' 7700 Sequence Detection System (Applied Biosystems, Foster City, Calif.) allowed for real time detection/quantitation of a specific gene by monitoring the increase in fluorescence of a gene-specific, dye-labeled oligonucleotide probe. […] When the probe was annealed to the target gene, fluorescence of 6FAM was prevented by the close proximity of TAMRA. The exonuclease activity of Taq polymerase released the dyes from the oligonucleotide probe by displacing the probe from the target sequence resulting in fluorescence excitation in direct proportion to the amount of target message present. […]

[6] = heart, quantitative RT-PCR, aldosterone/salt rats, 4 weeks, eplerenone 100 mpk p.o.

C[C@]12CCC(=O)C=C1CC[C@@H]1[C@@H]2[C@@H](O)C[C@]2(C=O)[C@@H](C(=O)CO)CC[C@@H]12 [aldosterone]
Myocardial fibrosis (interstitial collagen volume fraction, hydroxyproline concentration) (aldosterone infused rats): absence of myocardial fibrosis

COC(=O)[C@@H]1CC2=CC(=O)CC[C@]2(C)[C@@]23O[C@@H]2C[C@@]2(C)[C@@H](CC[C@@]24CCC(=O)O4)[C@H]13 [eplerenone, Pregn-4-ene-7,21-dicarboxylic acid, 9,11-epoxy-17-hydroxy-3-oxo-, γ-lactone, methyl ester, (7α, 11α, 17β) -]
COX-2 upregulation in myocardium (COX-2; aldosterone infused rats (FIG. 31)): prevention by eplerenone of COX-2 upregulation | COX-2 relative mRNA expression (COX-2; [6]): 1.8±0.36 | Circulating (serum) osteopontin levels (osteopontin [1]): marked decrease in circulating osteopontin levels | Osteopontin upregulation in myocardium (osteopontin [2]; aldosterone infused rats (FIG. 30)): prevention by eplerenone of osteopontin upregulation | Osteopontin relative mRNA expression (osteopontin [2]; [6]): 2.5±0.6 | Cerebral injury [3]: reduced cerebral injury; also recorded: decrease in cerebral injury | Urinary Na+/K+ ratio (diuretic or natriuretic effect) [4]: did not produce a significant diuretic or natriuretic effect | ANP mRNA upregulation ([5]; after 30 days of treatment): significantly reduced | ANP mRNA ([5]; mean ± SEM after 30 days of treatment, relative to cyclophilin expression, eplerenone 100 mg/kg/day): 9.20 ± 2.44 AU
